Source: PubChem BioAssay AID1919016 (Molecular Pharmacology Branch, DTP, NCI, 2023)
Where “and” joins values, the source holds several entries; their conditions need not be identical. Identical values can stand only once.

Test system: NCI-H196 complex spheroid growth, percent test/control
Assay: Anticancer human tumor NCI-H196 cell line growth inhibition [AhR];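 also: seven days of drug exposure starting three days after plating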;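 as to viability, T/C: 100% = DMSO vehicle control wells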
Conditions: for viability, T/C: stronger effect = lower value
Method in brief: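 Spheroids combined tumor cells with HUVEC endothelial cells and human MSCs as stroma. AhR antagonists were paired with standard or investigational drugs, each dosed in half-log steps down from near clinical Cmax, or from 10 microM where Cmax was unknown.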

[1] = curve of first compound, second compound 0.1 µM
[2] = curve of first compound, second compound 0.316 µM
[3] = curve of first compound, second compound 1 µM
[4] = curve of first compound, second compound 3.16 µM
[5] = curve of first compound, second compound 10 µM
[6] = second compound 0.1 µM, first compound 0.00316 µM
[7] = second compound 0.1 µM, first compound 0.01 µM
[8] = second compound 0.1 µM, first compound 0.0316 µM
[9] = second compound 0.1 µM, first compound 0.1 µM
[10] = second compound 0.1 µM, first compound 0.316 µM
[11] = second compound 0.1 µM, first compound 1 µM
[12] = second compound 0.316 µM, first compound 0.00316 µM
[13] = second compound 0.316 µM, first compound 0.01 µM
[14] = second compound 0.316 µM, first compound 0.0316 µM
[15] = second compound 0.316 µM, first compound 0.1 µM
[16] = second compound 0.316 µM, first compound 0.316 µM
[17] = second compound 0.316 µM, first compound 1 µM
[18] = second compound 1 µM, first compound 0.00316 µM
[19] = second compound 1 µM, first compound 0.01 µM
[20] = second compound 1 µM, first compound 0.0316 µM
[21] = second compound 1 µM, first compound 0.1 µM
[22] = second compound 1 µM, first compound 0.316 µM
[23] = second compound 1 µM, first compound 1 µM
[24] = second compound 3.16 µM, first compound 0.00316 µM
[25] = second compound 3.16 µM, first compound 0.01 µM
[26] = second compound 3.16 µM, first compound 0.0316 µM
[27] = second compound 3.16 µM, first compound 0.1 µM
[28] = second compound 3.16 µM, first compound 0.316 µM
[29] = second compound 3.16 µM, first compound 1 µM
[30] = second compound 10 µM, first compound 0.00316 µM
[31] = second compound 10 µM, first compound 0.01 µM
[32] = second compound 10 µM, first compound 0.0316 µM
[33] = second compound 10 µM, first compound 0.1 µM
[34] = second compound 10 µM, first compound 0.316 µM
[35] = second compound 10 µM, first compound 1 µM

## CC1COCCN1c1cc(-c2ccnn2C)c2ccnc(-c3ccn[nH]3)c2n1 (centres undefined) + CC(CO)NC(=O)c1cc(-c2ccc(Cl)cc2)nn(-c2cnn(C)c2)c1=O
[1]
  IC50: > 1000 nM
[2]
  IC50: > 1000 nM
[3]
  IC50: > 1000 nM
[4]
  IC50: > 1000 nM
[5]
  IC50: > 1000 nM
[6]
  viability, T/C: 104%
[7]
  viability, T/C: 109%
[8]
  viability, T/C: 101%
[9]
  viability, T/C: 79.3%
[10]
  viability, T/C: 72.2%
[11]
  viability, T/C: 61.1%
[12]
  viability, T/C: 105%
[13]
  viability, T/C: 98.9%
[14]
  viability, T/C: 97.9%
[15]
  viability, T/C: 78.6%
[16]
  viability, T/C: 66.3%
[17]
  viability, T/C: 68.5%
[18]
  viability, T/C: 108%
[19]
  viability, T/C: 104%
[20]
  viability, T/C: 101%
[21]
  viability, T/C: 90.8%
[22]
  viability, T/C: 77.4%
[23]
  viability, T/C: 71%
[24]
  viability, T/C: 111%
[25]
  viability, T/C: 102%
[26]
  viability, T/C: 98%
[27]
  viability, T/C: 82.4%
[28]
  viability, T/C: 80%
[29]
  viability, T/C: 66.5%
[30]
  viability, T/C: 103%
[31]
  viability, T/C: 98.5%
[32]
  viability, T/C: 107%
[33]
  viability, T/C: 89.4%
[34]
  viability, T/C: 74.2%
[35]
  viability, T/C: 79.8%

## CC[C@@]1(O)C(=O)OCc2c1cc1n(c2=O)Cc2cc3c(CN(C)C)c(O)ccc3nc2-1 + Cc1ccccc1N=Nc1ccc(NC(=O)c2ccnn2C)c(C)c1
[1]
  IC50: > 100 nM
[2]
  IC50: > 100 nM
[3]
  IC50: > 100 nM
[4]
  IC50: > 100 nM
[5]
  IC50: > 100 nM
Second compound 0.1 µM, first compound 0.000316 µM
  viability, T/C: 92.3%
Second compound 0.1 µM, first compound 0.001 µM
  viability, T/C: 111%
[6]
  viability, T/C: 93.5%
[7]
  viability, T/C: 88.8%
[8]
  viability, T/C: 112%
[9]
  viability, T/C: 102%
Second compound 0.316 µM, first compound 0.000316 µM
  viability, T/C: 105%
Second compound 0.316 µM, first compound 0.001 µM
  viability, T/C: 103%
[12]
  viability, T/C: 98.6%
[13]
  viability, T/C: 90.8%
[14]
  viability, T/C: 93.6%
[15]
  viability, T/C: 96.9%
Second compound 1 µM, first compound 0.000316 µM
  viability, T/C: 101%
Second compound 1 µM, first compound 0.001 µM
  viability, T/C: 112%
[18]
  viability, T/C: 98.3%
[19]
  viability, T/C: 98.4%
[20]
  viability, T/C: 99.7%
[21]
  viability, T/C: 93.5%
Second compound 3.16 µM, first compound 0.000316 µM
  viability, T/C: 97.2%
Second compound 3.16 µM, first compound 0.001 µM
  viability, T/C: 101%
[24]
  viability, T/C: 109%
[25]
  viability, T/C: 86.5%
[26]
  viability, T/C: 91.1%
[27]
  viability, T/C: 103%
Second compound 10 µM, first compound 0.000316 µM
  viability, T/C: 95%
Second compound 10 µM, first compound 0.001 µM
  viability, T/C: 97.7%
[30]
  viability, T/C: 89%
[31]
  viability, T/C: 98.3%
[32]
  viability, T/C: 102%
[33]
  viability, T/C: 97%

## Nc1ncn(C2CC(O)C(CO)S2)c(=O)n1 (centres undefined) + Cc1ccccc1N=Nc1ccc(NC(=O)c2ccnn2C)c(C)c1
[1]
  IC50: > 300 nM
[2]
  IC50: > 300 nM
[3]
  IC50: > 300 nM
[4]
  IC50: > 300 nM
[5]
  IC50: > 300 nM
Second compound 0.1 µM, first compound 0.000949 µM
  viability, T/C: 95%
Second compound 0.1 µM, first compound 0.003 µM
  viability, T/C: 93.4%
Second compound 0.1 µM, first compound 0.00949 µM
  viability, T/C: 99.1%
Second compound 0.1 µM, first compound 0.03 µM
  viability, T/C: 96.8%
Second compound 0.1 µM, first compound 0.0949 µM
  viability, T/C: 102%
Second compound 0.1 µM, first compound 0.3 µM
  viability, T/C: 101%
Second compound 0.316 µM, first compound 0.000949 µM
  viability, T/C: 105%
Second compound 0.316 µM, first compound 0.003 µM
  viability, T/C: 96.2%
Second compound 0.316 µM, first compound 0.00949 µM
  viability, T/C: 104%
Second compound 0.316 µM, first compound 0.03 µM
  viability, T/C: 96%
Second compound 0.316 µM, first compound 0.0949 µM
  viability, T/C: 101%
Second compound 0.316 µM, first compound 0.3 µM
  viability, T/C: 95.4%
Second compound 1 µM, first compound 0.000949 µM
  viability, T/C: 97.6%
Second compound 1 µM, first compound 0.003 µM
  viability, T/C: 89.9%
Second compound 1 µM, first compound 0.00949 µM
  viability, T/C: 97.9%
Second compound 1 µM, first compound 0.03 µM
  viability, T/C: 87.3%
Second compound 1 µM, first compound 0.0949 µM
  viability, T/C: 91%
Second compound 1 µM, first compound 0.3 µM
  viability, T/C: 104%
Second compound 3.16 µM, first compound 0.000949 µM
  viability, T/C: 89.3%
Second compound 3.16 µM, first compound 0.003 µM
  viability, T/C: 102%
Second compound 3.16 µM, first compound 0.00949 µM
  viability, T/C: 100%
Second compound 3.16 µM, first compound 0.03 µM
  viability, T/C: 93.7%
Second compound 3.16 µM, first compound 0.0949 µM
  viability, T/C: 97.7%
Second compound 3.16 µM, first compound 0.3 µM
  viability, T/C: 99.5%
Second compound 10 µM, first compound 0.000949 µM
  viability, T/C: 85.1%
Second compound 10 µM, first compound 0.003 µM
  viability, T/C: 82.4%
Second compound 10 µM, first compound 0.00949 µM
  viability, T/C: 86.2%
Second compound 10 µM, first compound 0.03 µM
  viability, T/C: 86.2%
Second compound 10 µM, first compound 0.0949 µM
  viability, T/C: 90.5%
Second compound 10 µM, first compound 0.3 µM
  viability, T/C: 92.1%

## NS(=O)(=O)OCC1CC(n2ccc3c(NC4CCc5ccccc54)ncnc32)CC1O (centres undefined) + Cc1cncc(-c2nc(NCCc3c[nH]c4ccccc34)c3ncn(C(C)C)c3n2)c1
[1]
  IC50: > 10000 nM
[2]
  IC50: > 10000 nM
[3]
  IC50: > 10000 nM
[4]
  IC50: > 10000 nM
[5]
  IC50: > 10000 nM
[8]
  viability, T/C: 73.7%
[9]
  viability, T/C: 65.6%
[10]
  viability, T/C: 57.3%
[11]
  viability, T/C: 48.6%
Second compound 0.1 µM, first compound 3.16 µM
  viability, T/C: 77%
Second compound 0.1 µM, first compound 10 µM
  viability, T/C: 68.2%
[14]
  viability, T/C: 80%
[15]
  viability, T/C: 63.3%
[16]
  viability, T/C: 56.3%
[17]
  viability, T/C: 55.6%
Second compound 0.316 µM, first compound 3.16 µM
  viability, T/C: 58.1%
Second compound 0.316 µM, first compound 10 µM
  viability, T/C: 64.9%
[20]
  viability, T/C: 74.3%
[21]
  viability, T/C: 66.7%
[22]
  viability, T/C: 60.6%
[23]
  viability, T/C: 49.3%
Second compound 1 µM, first compound 3.16 µM
  viability, T/C: 72%
Second compound 1 µM, first compound 10 µM
  viability, T/C: 59.3%
[26]
  viability, T/C: 81.8%
[27]
  viability, T/C: 81.8%
[28]
  viability, T/C: 66.8%
[29]
  viability, T/C: 53.8%
Second compound 3.16 µM, first compound 3.16 µM
  viability, T/C: 60.7%
Second compound 3.16 µM, first compound 10 µM
  viability, T/C: 66.2%
[32]
  viability, T/C: 102%
[33]
  viability, T/C: 91.7%
[34]
  viability, T/C: 96.4%
[35]
  viability, T/C: 79.6%
Second compound 10 µM, first compound 3.16 µM
  viability, T/C: 74.8%
Second compound 10 µM, first compound 10 µM
  viability, T/C: 61.6%

## O=C(c1cc(Cc2n[nH]c(=O)c3ccccc23)ccc1F)N1CCN(C(=O)C2CC2)CC1
Compound 0.0316 µM
  viability, T/C: 106% and 105% and 100%
Compound 0.1 µM
  viability, T/C: 105% and 112% and 108%
Compound 0.316 µM
  viability, T/C: 99.7% and 98.5% and 104%
Compound 1 µM
  viability, T/C: 97.2% and 98.1% and 105%
Compound 3.16 µM
  viability, T/C: 97.2% and 96.9% and 99.9%
Compound 10 µM
  viability, T/C: 99.7% and 103% and 99.5%
Curve of compound
  IC50: > 10000 nM

## CCc1c2c(nc3ccc(O)cc13)-c1cc3c(c(=O)n1C2)COC(=O)[C@]3(O)CC
Compound 0.000949 µM
  viability, T/C: 89.6% and 96.8% and 99.8%
Compound 0.003 µM
  viability, T/C: 98.3% (2×) and 108%
Compound 0.00949 µM
  viability, T/C: 96.8% and 95.2% and 99.4%
Compound 0.03 µM
  viability, T/C: 96.7% and 109% (2×)
Compound 0.0949 µM
  viability, T/C: 90.5% and 101% and 110%
Compound 0.3 µM
  viability, T/C: 96.5% and 83.3% and 95.6%
Curve of compound
  IC50: > 300 nM
